# In ChEMBL document CHEMBL1135149, “Syntheses of depsipeptide analogues of the insect neuropeptide proctolin” (2002):
# Non-standard residues stand in square brackets, D forms with d. Residues, ends and D or L forms follow the SMILES beside them. *: point of attachment. Hpla = O=C(O)[C@@H](O)Cc1ccc(O)cc1; Hica(2S) = CC(C)C[C@H](O)C(=O)O; X1 = C[C@@H](O)[C@H](O*)C(=O)O
# Test system: Locusta migratoria
# Assay: Myotropic effect was assessed in vitro, using an isometric muscle contraction bioassay employing isolated hindguts from the locust Locusta migratoria at 1 uM/L
# Assay type: functional, Muscle tissue
row,Compound,Isometric contraction [%]
1,CC(C)C[C@H](NC(=O)[C@H](Cc1ccc(O)cc1)NC(=O)[C@@H](N)CCCN=C(N)N)C(=O)N1CCC[C@H]1C(=O)O[C@H](C(=O)O)[C@@H](C)O.O=C(O)C(F)(F)F.O=C(O)C(F)(F)F.O=C(O)C(F)(F)F (H-RYLP-X1),106
2,CC(C)C[C@H](OC(=O)[C@H](Cc1ccc(O)cc1)NC(=O)[C@@H](N)CCCN=C(N)N)C(=O)N1CCC[C@H]1C(=O)O[C@H](C(=O)O)[C@@H](C)O.O=C(O)C(F)(F)F.O=C(O)C(F)(F)F.O=C(O)C(F)(F)F (H-RY[Hica(2S)]P-X1),27
3,CC(C)C[C@H](OC(=O)[C@H](Cc1ccc(O)cc1)NC(=O)[C@@H](N)CCCN=C(N)N)C(=O)N1CCC[C@H]1C(=O)N[C@H](C(=O)O)[C@@H](C)O.O=C(O)C(F)(F)F.O=C(O)C(F)(F)F.O=C(O)C(F)(F)F (H-RY[Hica(2S)]PT-OH),30
4,CC(C)C[C@H](NC(=O)[C@H](Cc1ccc(O)cc1)OC(=O)[C@@H](N)CCCN=C(N)N)C(=O)N1CCC[C@H]1C(=O)N[C@H](C(=O)O)[C@@H](C)O.O=C(O)C(F)(F)F.O=C(O)C(F)(F)F.O=C(O)C(F)(F)F (H-R[Hpla]LPT-OH),66
5,H-RYLPT-OH [PROCTOLIN],100
